Experimental data taken from publication PMC5872703, “The Postprandial Anti-Hyperglycemic Effect of Pyridoxine and Its Derivatives Using In Vitro and In Vivo Animal Models” (Nutrients, 2018).
Values joined by “and” are separate entries in the source; they are usually repeats but may differ in a detail not shown here. Identical values can stand only once. Marks after values point to notes of the source that are not given here.

How the values were obtained:
[1] = tested on: Sprague-Dawley (SD) rats; test: Starch loading test, postprandial blood glucose; type: in vivo, rat; conditions: for BGL AUCt / blood glucose level / increase in blood glucose level: SD rats; for BGL AUCt: starch 2.0 g/kg; for blood glucose level / increase in blood glucose level: starch 2.0 g/kg oral, 30 min after administration
Description: (§1) All animal procedures were approved by Institutional Animal Care and Use Committee (IACUC) of the Hannam University (Approval number: HNU2017-003). Four-week-old male SD rats were purchased from Raon Bio Co. (Gyeonggi-do, Korea) and fed a solid diet (Raon Bio Co., Gyeonggi-do, Korea) for one week. The rats were housed in a ventilated room at 23 ± 2 °C with 50 ± 5% relative humidity, and under an alternating 12 h light/dark cycle. […] The blood samples were then taken from the tail after administration and blood glucose levels were measured at 0, 0.5, 1, 2, and 3 h.

[2] = tested on: Sprague-Dawley (SD) rats; test: Sucrose loading test, postprandial blood glucose; type: in vivo, rat; conditions: for BGL AUCt / blood glucose level / change (increase) of blood glucose level: SD rats; for BGL AUCt: sucrose 2.0 g/kg; for blood glucose level / change (increase) of blood glucose level: sucrose 2.0 g/kg oral, 30 min after administration
Description: as §1

[3] = target: T1, Rat Intestinal SUCRASE (Rattus norvegicus, UniProt P23739); test: Sucrase inhibition assay (rat intestinal acetone powder); type: biochemical; conditions: mean ± S.D.
T1 construct: The crude enzyme solution prepared from rat intestinal acetone powder; tissue Sigma-Aldrich Co; host or cells: rat intestine (acetone powder)
Description: (§2) The crude enzyme solution prepared from rat intestinal acetone powder Sigma-Aldrich Co. (St. Louise, MO, USA) was used as the small intestinal maltase, sucrose, and glucoamylase, showing specific activities of 0.70, 0.34, and 0.45 units/mL, respectively. Rat intestinal acetone powder (1.0 g) was suspended in 3 mL of 0.1 M sodium phosphate buffer, and the suspension was sonicated 12 times for 30 s at 4 °C. After centrifugation (10,000 × g, 30 min, 4 °C), the resulting supernatant was used for the assay. Maltase, sucrose, and glucoamylase inhibitory activity were assay by modifying a method developed by Dahlqvist. The inhibitory activity was determined by incubating a solution of an enzyme (50 μL), 0.1 M phosphate buffer (pH 7.0, 100 μL) containing 0.4 mg/mL sucrose or maltose or 1% soluble starch, and a solution (50 μL) with various concentrations of sample solution (between 0.05 and 1.0 mM) at 37 °C for 30 min. The reaction mixture was heated in a boiling water bath to stop the reaction for 10 min, and the amount of liberated glucose was then measured by the glucose oxidase. The inhibitory activity was calculated from the formula as follows. Inhibition (%) = (C − T)/C × 100, where C is the enzyme activity without inhibitor, and T is the enzyme activity with inhibitor.

[4] = target: T2, porcine pancreatic α-amylase (Sus scrofa, UniProt P00690); test: Porcine pancreatic α-amylase inhibition assay; type: biochemical; conditions: for IC50: mean ± S.D.
T2 sequence (P00690 16-511): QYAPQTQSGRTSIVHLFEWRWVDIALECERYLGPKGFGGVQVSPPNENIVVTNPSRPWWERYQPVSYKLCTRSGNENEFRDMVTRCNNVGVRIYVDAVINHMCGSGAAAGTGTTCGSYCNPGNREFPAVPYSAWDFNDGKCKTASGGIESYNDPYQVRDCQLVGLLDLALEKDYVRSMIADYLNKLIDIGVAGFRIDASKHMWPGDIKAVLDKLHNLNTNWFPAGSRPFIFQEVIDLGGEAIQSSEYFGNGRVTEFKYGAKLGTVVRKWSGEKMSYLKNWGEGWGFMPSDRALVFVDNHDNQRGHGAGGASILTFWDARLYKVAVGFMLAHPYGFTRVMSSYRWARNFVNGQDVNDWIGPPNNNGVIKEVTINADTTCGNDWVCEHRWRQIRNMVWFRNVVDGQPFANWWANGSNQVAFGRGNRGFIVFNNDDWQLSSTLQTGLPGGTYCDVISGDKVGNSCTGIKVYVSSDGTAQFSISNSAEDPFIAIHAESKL
Description: The porcine pancreatic α-amlyase inhibition assay was administered as per the method of Kwon et al. Sample solution (200 μL) and 0.02 M sodium phosphate buffer (pH 6.9 with 0.006 M sodium chloride, 500 μL) containing α-amylase solution (0.5 mg/mL, 5.0 MU/mL) were incubated at 25 °C for 10 min. After preincubation, 500 μL of a 1% starch solution in 0.02 M sodium phosphate buffer was added. The reaction mixture was then incubated at 25 °C for 10 min. The reaction was stopped with 1.0 mL of dinitrosalicylic acid (DNS). The reaction mixture was then incubated in a boiling water bath for 5 min and cooled to room temperature. The reaction mixture at 540 nm with ELISA microplate reader (SUNRISE; Tecan Trading AG, Saltzburg, Austria).

[5] = target: rat intestinal α-glucosidase; test: Rat intestinal α-glucosidase inhibition assay (pNPG); type: biochemical; conditions: for IC50 Rat intestinal α-Glucosidase: mean ± S.D.
Description: The rat intestinal α-glucosidase assay was administered as per the method of Kwon et al. with slight modification. A total of 1 g of rat-intestinal acetone powder was suspended in 3 mL of 0.1 M sodium phosphate buffer (pH 6.9), and the suspension was sonicated 12 times for 30 s at 4 °C. After centrifugation (10,000× g, 30 min, 4 °C), the resulting supernatant was used for the assay. Sample solution (50 μL) and 0.1 phosphate buffer (pH 6.9, 100 μL) containing α-glucosidase (Sigma-Aldrich, St. Luis, MO, USA) solution (1.0 U/mL) was incubated at 37 °C for 10 min. After pre-incubation, 5 mM p-nitrophenyl-α-D-glucopyranoside solution (50 μL) in 0.1 M phosphate buffer (pH 6.9) was added to each well at timed intervals. The reaction mixtures were incubated at 37 °C for 30 min. Before and after incubation, absorbance was read at 405 nm and compared to a control, which had 50 μL of buffer solution in place of the extract by micro-plate reader (SUNRISE; Tecan Trading AG, Salzburg, Austria). The α-glucosidase inhibitory activity was expressed as inhibition % and was calculated as follows: Inhibition(%)=(ΔA 405 (Control)−ΔA 405(Extract)/ΔA 405 (Control))×100

[6] = target: Rat Intestinal Maltase; test: Maltase inhibition assay (rat intestinal acetone powder); type: biochemical; conditions: for IC50 Rat Intestinal Maltase: mean ± S.D.
Description: as §2

[7] = target: Rat Intestinal Glucoamylase (Rattus norvegicus, UniProt D3ZTX4); test: Glucoamylase inhibition assay (rat intestinal acetone powder); type: biochemical; conditions: read-out: glucoamylase inhibition
Description: as §2

[8] = two highest tested doses 5 and 7 mg/mL
[9] = starch loading, 30 min, vs pyridoxine-treated group
[10] = starch loading, 30 min, vs starch (control) group
[11] = sucrose loading, 30 min, vs pyridoxine-treated group

T1 sequence (P23739 whole entry): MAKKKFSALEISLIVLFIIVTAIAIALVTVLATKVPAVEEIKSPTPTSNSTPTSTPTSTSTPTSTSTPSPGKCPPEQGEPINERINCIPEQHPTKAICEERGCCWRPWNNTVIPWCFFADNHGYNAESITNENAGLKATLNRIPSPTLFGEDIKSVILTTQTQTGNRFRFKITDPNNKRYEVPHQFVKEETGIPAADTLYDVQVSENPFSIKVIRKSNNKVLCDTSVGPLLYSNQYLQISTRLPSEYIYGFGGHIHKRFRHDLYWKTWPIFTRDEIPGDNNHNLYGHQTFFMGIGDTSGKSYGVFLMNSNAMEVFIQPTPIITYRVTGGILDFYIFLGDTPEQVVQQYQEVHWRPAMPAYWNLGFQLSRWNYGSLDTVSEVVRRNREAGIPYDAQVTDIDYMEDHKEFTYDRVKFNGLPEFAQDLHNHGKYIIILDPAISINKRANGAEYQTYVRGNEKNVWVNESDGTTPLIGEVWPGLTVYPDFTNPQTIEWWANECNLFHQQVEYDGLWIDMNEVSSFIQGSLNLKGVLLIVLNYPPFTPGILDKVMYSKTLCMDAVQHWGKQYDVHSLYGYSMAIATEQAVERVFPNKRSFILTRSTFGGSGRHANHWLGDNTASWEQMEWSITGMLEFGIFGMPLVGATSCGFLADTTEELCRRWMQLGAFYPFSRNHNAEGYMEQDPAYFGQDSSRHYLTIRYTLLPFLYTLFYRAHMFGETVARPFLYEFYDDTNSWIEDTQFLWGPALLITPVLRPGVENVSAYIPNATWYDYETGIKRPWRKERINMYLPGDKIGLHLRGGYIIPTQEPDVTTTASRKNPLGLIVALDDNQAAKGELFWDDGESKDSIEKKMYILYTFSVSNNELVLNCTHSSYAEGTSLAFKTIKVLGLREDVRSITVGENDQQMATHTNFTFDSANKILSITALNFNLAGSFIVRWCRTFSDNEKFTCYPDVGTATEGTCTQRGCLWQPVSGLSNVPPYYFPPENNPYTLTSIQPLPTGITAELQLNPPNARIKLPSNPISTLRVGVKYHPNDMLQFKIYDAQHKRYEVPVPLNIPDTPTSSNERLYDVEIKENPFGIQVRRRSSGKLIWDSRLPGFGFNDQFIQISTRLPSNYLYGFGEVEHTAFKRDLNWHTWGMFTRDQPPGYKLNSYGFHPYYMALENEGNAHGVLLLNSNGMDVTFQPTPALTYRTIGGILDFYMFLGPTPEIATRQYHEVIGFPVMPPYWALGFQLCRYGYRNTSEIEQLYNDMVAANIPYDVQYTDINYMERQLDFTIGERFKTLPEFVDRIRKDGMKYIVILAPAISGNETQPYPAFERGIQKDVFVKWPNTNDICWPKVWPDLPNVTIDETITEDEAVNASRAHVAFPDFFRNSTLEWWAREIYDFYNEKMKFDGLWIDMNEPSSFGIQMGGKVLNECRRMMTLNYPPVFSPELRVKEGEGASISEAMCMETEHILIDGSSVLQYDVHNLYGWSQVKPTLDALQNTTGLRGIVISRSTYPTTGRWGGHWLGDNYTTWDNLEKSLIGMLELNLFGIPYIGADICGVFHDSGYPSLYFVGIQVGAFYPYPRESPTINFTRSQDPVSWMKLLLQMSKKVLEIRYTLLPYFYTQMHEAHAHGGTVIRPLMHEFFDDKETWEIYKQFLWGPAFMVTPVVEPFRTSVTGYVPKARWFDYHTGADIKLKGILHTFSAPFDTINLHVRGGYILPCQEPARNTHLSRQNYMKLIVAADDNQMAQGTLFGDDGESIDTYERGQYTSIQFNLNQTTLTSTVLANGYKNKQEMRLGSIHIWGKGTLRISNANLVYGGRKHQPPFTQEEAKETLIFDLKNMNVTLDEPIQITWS

Row | IC50 [3] [mM] | IC50 [4] [mM] | IC50 Rat intestinal α-Glucosidase [5] | IC50 Rat Intestinal Maltase [6] | Structure (SMILES) | BGL AUCt ([1]; sample 0.1 g/kg oral) | pancreatic α-amylase inhibitory effect [4, 8] | BGL AUCt ([2]; sample 0.1 g/kg oral) | blood glucose level [1] [mg/dL] | increase in blood glucose level [1] [mg/dL] | blood glucose level [2] [mg/dL] | change (increase) of blood glucose level [2] [mg/dL] | also measured
1 | – | – | – | – | C[C@H]1O[C@H](O[C@H]2[C@H](O)[C@@H](O)[C@@H](O[C@H]3[C@H](O)[C@@H](O)C(O)O[C@@H]3CO)O[C@@H]2CO)[C@H](O)[C@@H](O)[C@@H]1N[C@H]1C=C(CO)[C@@H](O)[C@H](O)[C@H]1O (stereo partly drawn) [Acarbose, reference compound] | – | – | – | – | – | – | – | BGL AUCt ([1]; Acarbose 0.005 g/kg oral): 228.88 ± 13.09 ^a h∙mg/dL; BGL AUCt ([2]; Acarbose 0.005 g/kg oral): 237.94 ± 8.82 ^a h∙mg/dL
2 | 2.08 | 88.8 | 4.85 ± 0.06 ^a mg/mL | 1.08 ± 0.10 ^a mg/mL | Cc1ncc(CO)c(CN)c1O [Pyridoxamine] | 275.10 ± 7.31 ^b h∙mg/dL | showed α-amylase inhibitory effects | 269.14 ± 13.40 ^b h∙mg/dL | – | – | – | – | –
3 | 1.89 | 137 | 5.02 ± 0.05 ^a mg/mL | 0.87 ± 0.08 ^a mg/mL | Cc1ncc(CO)c(CO)c1O [Pyridoxine] | 274.28 ± 15.62 ^b h∙mg/dL | – | 290.64 ± 15.55 ^c h∙mg/dL | 201.78 ± 18.99 | 107.69 ± 18.99 | 192.50 ± 10.10 | 92.86 ± 10.10 | pancreatic α-amylase inhibitory effect ([4]; highest tested dose 7 mg/mL): no inhibitory effects

Row | Structure (SMILES) | IC50 [3] [mM] | IC50 [4] [mM] | IC50 Rat intestinal α-Glucosidase [5] | IC50 Rat Intestinal Maltase [6] | BGL AUCt ([1]; sample 0.1 g/kg oral) | pancreatic α-amylase inhibitory effect [4, 8] | BGL AUCt ([2]; sample 0.1 g/kg oral) | blood glucose level [1] [mg/dL] | increase in blood glucose level [1] [mg/dL] | blood glucose level [2] [mg/dL] | change (increase) of blood glucose level [2] [mg/dL] | also measured
4 | Cc1ncc(CO)c(C=O)c1O [Pyridoxal] | 1.91 ± 0.179 | 77.3 ± 7.3 | 4.14 mg/mL and 4.15 ± 0.17 ^b mg/mL | 0.38 mg/mL and 0.37 ± 0.13 ^b mg/mL | 268.27 ± 8.80 ^b h∙mg/dL | showed α-amylase inhibitory effects | 272.99 ± 5.96 ^b h∙mg/dL | 175.36 ± 10.84 | 79.78 ± 10.84 | 164.74 ± 12.06 | 64.88 ± 12.06 | decrease of maximum blood glucose level (Cmax) compared to control ([1]; starch loading test, p < 0.05): ~19%; increase in blood glucose level, less than that of pyridoxine-treated group [1, 9]: 27.91 mg/dL; suppression of blood glucose level compared to pyridoxine-treated group [1, 9]: 26.41 mg/dL; increase in blood glucose level, less than that of starch group [1, 10]: 44.45 mg/dL; suppression of blood glucose level compared to starch group [1, 10]: 41.56 mg/dL; α-glucosidase inhibition ([5]; highest tested dose 7 mg/mL): 79.83%; maltase inhibitory activity ([6]; 0.5 mg/mL): 48.39%; maltase inhibitory activity ([6]; 1 mg/mL): 70.10%; maltase inhibitory activity ([6]; 2 mg/mL): 83.29%; blood glucose reduction compared to control ([2]; at 30 min, loading test not given): around 18%; decrease of maximum blood glucose level (Cmax) compared to control ([2]; sucrose loading test, p < 0.05): about 18%; blood glucose level, less than that of pyridoxine-treated group [2, 11]: 27.76 mg/dL; change of blood glucose level, lower than pyridoxine-treated group [2, 11]: 27.98 mg/dL; blood glucose level, less than that of sucrose-treated group ([2]; sucrose loading, 30 min, vs sucrose (control) group): 35.89 mg/dL; inhibition at 200 µg/mL [7]: 42.8%; inhibition at 500 µg/mL [7]: 66.1%; inhibition at 1000 µg/mL [7]: 78.6%
